Tests used:
Assay in all cases: Competitive isoTOP-ABPP in situ (fragment-treated cells)
Assay type in all cases: cell-based
[1] = target: T1, cysteines in MDA-MB-231 and Ramos cells (Homo sapiens, UniProt Q5JPI3); conditions: 200 μM, insitu, 231
T1 sequence (Q5JPI3 1-329): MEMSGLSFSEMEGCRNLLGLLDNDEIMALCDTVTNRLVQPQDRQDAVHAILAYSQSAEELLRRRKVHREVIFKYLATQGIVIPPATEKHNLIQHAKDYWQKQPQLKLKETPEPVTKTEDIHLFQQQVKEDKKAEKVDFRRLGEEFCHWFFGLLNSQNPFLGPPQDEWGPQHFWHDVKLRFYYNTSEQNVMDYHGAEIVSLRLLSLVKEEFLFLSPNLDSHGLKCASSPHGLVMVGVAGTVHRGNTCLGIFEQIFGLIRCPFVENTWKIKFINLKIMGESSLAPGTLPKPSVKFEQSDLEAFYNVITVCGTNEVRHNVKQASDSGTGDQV

[2] = target: T2, cysteines in MDA-MB-231 and Ramos cells (Homo sapiens, UniProt P35754); conditions: for isoTOP-ABPP ratio P35754_C23: 200 μM, insitu
T2 sequence (P35754 1-106): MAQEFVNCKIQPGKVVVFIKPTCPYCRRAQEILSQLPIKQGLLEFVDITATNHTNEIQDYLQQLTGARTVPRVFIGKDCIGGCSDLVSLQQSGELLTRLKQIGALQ

[3] = target: cysteines in MDA-MB-231 and Ramos cells (Homo sapiens, UniProt P52948); conditions: 200 μM, insitu, 231
[4] = target: cysteines in MDA-MB-231 and Ramos cells (Homo sapiens, UniProt Q9UNI6)
Sequence of cysteines in MDA-MB-231 and Ramos cells (Homo sapiens, UniProt Q9UNI6) (Q9UNI6 whole entry): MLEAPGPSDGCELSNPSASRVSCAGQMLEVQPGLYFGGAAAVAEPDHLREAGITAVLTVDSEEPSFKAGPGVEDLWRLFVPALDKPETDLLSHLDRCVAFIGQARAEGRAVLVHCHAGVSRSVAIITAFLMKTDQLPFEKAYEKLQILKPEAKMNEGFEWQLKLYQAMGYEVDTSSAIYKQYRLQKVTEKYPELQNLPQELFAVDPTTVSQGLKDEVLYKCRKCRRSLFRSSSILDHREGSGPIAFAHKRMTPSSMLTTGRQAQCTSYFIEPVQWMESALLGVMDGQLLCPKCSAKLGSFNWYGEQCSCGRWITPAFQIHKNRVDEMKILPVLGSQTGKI

[5] = target: cysteines in MDA-MB-231 and Ramos cells (Homo sapiens, UniProt Q14790)
Sequence of cysteines in MDA-MB-231 and Ramos cells (Homo sapiens, UniProt Q14790) (Q14790 217-479): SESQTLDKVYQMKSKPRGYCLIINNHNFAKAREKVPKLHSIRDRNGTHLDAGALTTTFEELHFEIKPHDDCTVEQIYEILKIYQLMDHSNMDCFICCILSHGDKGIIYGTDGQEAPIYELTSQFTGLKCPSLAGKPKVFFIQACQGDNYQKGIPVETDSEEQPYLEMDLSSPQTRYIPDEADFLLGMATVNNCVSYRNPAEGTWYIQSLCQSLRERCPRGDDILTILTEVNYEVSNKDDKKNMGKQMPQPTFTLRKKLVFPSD

[6] = target: cysteines in MDA-MB-231 and Ramos cells (Homo sapiens, UniProt Q14137)
Sequence of cysteines in MDA-MB-231 and Ramos cells (Homo sapiens, UniProt Q14137) (Q14137 whole entry): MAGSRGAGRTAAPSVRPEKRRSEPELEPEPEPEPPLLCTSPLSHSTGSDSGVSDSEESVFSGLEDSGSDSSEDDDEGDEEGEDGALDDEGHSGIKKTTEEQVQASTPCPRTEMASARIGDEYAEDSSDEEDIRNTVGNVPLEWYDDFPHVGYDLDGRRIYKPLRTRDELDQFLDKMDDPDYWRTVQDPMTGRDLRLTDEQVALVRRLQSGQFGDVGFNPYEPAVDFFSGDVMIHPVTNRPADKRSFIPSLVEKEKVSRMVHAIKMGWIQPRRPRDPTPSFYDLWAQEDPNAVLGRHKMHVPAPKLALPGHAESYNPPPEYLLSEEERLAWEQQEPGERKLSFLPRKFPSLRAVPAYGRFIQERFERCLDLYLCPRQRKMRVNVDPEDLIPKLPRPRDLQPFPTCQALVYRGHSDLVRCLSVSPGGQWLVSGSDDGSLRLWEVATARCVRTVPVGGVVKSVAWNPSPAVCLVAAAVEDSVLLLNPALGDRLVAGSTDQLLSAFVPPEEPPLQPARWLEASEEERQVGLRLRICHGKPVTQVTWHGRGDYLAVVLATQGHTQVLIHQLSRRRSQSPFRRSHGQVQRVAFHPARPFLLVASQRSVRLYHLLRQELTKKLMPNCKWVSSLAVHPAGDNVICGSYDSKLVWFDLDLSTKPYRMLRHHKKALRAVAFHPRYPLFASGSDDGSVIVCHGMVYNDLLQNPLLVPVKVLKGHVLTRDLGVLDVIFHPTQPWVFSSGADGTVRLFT

[7] = target: cysteines in MDA-MB-231 and Ramos cells (Homo sapiens, UniProt Q96N67)
Sequence of cysteines in MDA-MB-231 and Ramos cells (Homo sapiens, UniProt Q96N67) (Q96N67 whole entry): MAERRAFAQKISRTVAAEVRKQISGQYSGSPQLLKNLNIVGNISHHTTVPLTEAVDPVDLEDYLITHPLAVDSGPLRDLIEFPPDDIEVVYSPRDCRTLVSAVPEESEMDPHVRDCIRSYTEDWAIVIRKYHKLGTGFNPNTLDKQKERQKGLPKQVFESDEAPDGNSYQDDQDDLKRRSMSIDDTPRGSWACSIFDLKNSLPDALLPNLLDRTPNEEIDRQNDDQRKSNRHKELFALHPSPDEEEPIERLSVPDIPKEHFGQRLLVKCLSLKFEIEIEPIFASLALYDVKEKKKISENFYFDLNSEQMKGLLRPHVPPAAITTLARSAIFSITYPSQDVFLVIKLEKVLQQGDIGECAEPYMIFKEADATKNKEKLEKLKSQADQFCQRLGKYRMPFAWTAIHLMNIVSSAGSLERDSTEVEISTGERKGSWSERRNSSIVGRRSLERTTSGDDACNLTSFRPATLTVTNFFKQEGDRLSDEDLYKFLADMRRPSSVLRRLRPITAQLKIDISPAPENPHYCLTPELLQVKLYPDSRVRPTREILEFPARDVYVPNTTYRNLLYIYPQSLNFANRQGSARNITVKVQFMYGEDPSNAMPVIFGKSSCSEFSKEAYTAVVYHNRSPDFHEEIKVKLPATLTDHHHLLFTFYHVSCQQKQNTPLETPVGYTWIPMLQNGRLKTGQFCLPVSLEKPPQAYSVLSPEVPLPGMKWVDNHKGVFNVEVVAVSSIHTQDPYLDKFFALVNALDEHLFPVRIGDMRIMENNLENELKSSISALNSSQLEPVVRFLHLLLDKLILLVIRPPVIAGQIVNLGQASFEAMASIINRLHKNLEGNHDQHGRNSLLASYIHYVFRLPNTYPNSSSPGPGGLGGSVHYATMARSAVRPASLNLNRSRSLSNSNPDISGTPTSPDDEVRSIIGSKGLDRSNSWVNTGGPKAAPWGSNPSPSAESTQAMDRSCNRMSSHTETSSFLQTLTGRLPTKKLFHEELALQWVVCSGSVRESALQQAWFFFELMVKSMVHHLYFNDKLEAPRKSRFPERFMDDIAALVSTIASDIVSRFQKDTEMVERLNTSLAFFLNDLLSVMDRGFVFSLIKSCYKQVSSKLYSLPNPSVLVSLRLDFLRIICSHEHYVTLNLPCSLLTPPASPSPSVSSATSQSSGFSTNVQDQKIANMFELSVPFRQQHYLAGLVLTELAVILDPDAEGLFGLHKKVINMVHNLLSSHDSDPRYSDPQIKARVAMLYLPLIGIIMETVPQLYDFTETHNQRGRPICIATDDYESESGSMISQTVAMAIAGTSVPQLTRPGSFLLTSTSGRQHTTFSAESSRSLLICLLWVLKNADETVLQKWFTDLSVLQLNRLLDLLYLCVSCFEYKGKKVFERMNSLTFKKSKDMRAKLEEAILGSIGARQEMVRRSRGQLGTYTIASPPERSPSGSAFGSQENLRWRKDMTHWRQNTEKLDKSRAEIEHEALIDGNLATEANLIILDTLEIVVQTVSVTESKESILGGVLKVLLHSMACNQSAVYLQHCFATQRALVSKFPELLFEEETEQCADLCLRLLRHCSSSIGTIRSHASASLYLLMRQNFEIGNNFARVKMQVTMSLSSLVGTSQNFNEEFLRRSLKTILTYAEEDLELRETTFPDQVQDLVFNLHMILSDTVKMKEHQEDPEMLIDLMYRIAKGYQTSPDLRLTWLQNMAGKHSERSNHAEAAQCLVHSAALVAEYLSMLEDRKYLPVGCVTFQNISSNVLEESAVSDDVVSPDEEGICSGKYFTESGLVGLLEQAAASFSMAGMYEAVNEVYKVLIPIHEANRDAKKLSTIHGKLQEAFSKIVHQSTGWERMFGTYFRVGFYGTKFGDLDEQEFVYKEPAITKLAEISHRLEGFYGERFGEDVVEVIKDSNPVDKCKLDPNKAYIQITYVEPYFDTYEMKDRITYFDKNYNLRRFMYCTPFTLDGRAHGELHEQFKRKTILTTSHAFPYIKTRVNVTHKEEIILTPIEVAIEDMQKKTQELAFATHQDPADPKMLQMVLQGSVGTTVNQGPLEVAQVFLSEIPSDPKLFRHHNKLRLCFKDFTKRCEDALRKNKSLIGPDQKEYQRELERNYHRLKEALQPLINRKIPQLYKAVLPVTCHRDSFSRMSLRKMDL

[8] = target: T3, cysteines in MDA-MB-231 and Ramos cells (Homo sapiens, UniProt Q9NTX5)
T3 sequence (Q9NTX5 1-307): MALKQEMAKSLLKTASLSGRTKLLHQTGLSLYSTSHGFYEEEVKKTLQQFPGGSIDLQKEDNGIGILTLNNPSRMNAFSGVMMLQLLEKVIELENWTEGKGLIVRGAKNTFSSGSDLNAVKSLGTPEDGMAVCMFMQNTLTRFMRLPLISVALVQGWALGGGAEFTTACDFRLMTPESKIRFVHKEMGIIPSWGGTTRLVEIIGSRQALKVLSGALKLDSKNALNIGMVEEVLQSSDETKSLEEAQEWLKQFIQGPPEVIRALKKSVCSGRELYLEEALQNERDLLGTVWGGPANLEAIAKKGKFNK

[9] = target: cysteines in MDA-MB-231 and Ramos cells (Homo sapiens, UniProt Q5MNZ6)
Sequence of cysteines in MDA-MB-231 and Ramos cells (Homo sapiens, UniProt Q5MNZ6) (Q5MNZ6 whole entry): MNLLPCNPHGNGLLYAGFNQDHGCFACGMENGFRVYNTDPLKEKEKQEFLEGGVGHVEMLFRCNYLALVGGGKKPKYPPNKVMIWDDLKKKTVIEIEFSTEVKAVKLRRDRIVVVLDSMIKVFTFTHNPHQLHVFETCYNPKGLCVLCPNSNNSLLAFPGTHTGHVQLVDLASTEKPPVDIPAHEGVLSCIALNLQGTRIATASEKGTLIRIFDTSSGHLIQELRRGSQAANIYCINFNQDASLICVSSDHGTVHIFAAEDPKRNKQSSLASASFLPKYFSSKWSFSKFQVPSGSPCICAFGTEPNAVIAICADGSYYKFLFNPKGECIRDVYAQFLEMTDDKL

[10] = target: T4, cysteines in MDA-MB-231 and Ramos cells (Homo sapiens, UniProt O75717); conditions: 200 μM, insitu, 231
T4 sequence (O75717 1-1129): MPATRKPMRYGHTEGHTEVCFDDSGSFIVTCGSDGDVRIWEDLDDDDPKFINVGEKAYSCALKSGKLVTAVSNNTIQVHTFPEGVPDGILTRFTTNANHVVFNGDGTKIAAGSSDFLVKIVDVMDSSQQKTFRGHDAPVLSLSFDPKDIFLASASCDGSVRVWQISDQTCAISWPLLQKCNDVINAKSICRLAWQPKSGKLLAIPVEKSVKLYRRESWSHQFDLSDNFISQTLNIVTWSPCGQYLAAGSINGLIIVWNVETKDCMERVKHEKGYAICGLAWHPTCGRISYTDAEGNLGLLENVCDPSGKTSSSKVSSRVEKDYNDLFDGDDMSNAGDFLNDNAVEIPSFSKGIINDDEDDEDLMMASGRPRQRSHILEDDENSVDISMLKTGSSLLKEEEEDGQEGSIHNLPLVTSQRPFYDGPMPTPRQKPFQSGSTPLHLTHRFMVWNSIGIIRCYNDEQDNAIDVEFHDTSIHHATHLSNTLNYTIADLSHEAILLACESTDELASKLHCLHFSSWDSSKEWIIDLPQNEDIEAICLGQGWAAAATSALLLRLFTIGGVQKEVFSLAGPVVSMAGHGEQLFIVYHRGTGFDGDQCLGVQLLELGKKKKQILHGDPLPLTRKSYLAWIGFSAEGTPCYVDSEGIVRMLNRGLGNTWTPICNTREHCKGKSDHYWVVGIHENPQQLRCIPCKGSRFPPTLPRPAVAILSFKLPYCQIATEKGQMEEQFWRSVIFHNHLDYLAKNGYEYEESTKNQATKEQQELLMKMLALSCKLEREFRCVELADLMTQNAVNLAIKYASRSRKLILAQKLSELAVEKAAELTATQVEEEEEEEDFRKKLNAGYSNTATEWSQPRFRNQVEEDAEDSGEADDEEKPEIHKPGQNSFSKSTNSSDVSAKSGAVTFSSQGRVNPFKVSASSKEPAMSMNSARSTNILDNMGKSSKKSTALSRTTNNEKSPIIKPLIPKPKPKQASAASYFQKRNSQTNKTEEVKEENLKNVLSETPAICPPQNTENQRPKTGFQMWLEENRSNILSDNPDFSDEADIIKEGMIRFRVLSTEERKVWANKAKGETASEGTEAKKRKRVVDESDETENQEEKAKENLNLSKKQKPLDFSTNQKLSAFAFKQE

[11] = target: cysteines in MDA-MB-231 and Ramos cells (Homo sapiens, UniProt P27707); conditions: for isoTOP-ABPP ratio P27707_C9: 200 μM, insitu
Sequence of cysteines in MDA-MB-231 and Ramos cells (Homo sapiens, UniProt P27707) (P27707 whole entry): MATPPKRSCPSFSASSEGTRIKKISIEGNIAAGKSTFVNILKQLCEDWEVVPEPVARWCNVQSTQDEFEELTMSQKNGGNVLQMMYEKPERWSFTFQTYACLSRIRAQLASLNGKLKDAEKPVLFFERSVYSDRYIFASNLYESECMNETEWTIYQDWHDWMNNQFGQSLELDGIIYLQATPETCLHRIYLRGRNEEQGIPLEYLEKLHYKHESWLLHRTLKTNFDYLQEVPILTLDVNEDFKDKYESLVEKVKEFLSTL

## CC(C)CCOCCNC(=O)CCl [compound 27]
[1]
  isoTOP-ABPP ratio Q5JPI3_C308: 0.7
[2]; 231
  isoTOP-ABPP ratio P35754_C23: 0.7
[3]
  isoTOP-ABPP ratio P52948_C1312: 1.3
[4]; 200 μM, insitu, 231
  isoTOP-ABPP ratio Q9UNI6_C265: 0.6
[5]; 200 μM, insitu, 231
  isoTOP-ABPP ratio Q14790_C360: 0.4
[6]; 200 μM, insitu, 231
  isoTOP-ABPP ratio Q14137_C404: 0.6
[7]; 200 μM, insitu, 231
  isoTOP-ABPP ratio Q96N67_C2125: 0.9
[8]; 200 μM, insitu, 231
  isoTOP-ABPP ratio Q9NTX5_C133: 1.5

## COc1cc2c(cc1OC)CN(C(=O)CCl)CC2 [compound 8]
[9]; 200 μM, insitu, 231
  isoTOP-ABPP reactivity Q5MNZ6_C63 WDR45L: 20.0
[7]; 200 μM, insitu, 231
  isoTOP-ABPP reactivity Q96N67_C2125 DOCK7: 5.4
[10]
  isoTOP-ABPP reactivity O75717_C773 WDHDl: 4.2
[8]; 200 μM, insitu, 231
  isoTOP-ABPP reactivity Q9NTX5_C133 ECHDC1: 2.0

## COc1ccc(C2CC(c3cccs3)=NN2C(=O)CCl)cc1 (stereo not drawn) [compound 4]
[9]; 100 μM in situ 231
  isoTOP-ABPP reactivity Q5MNZ6_C63 WDR45L: 2.0
[2]; 100 μM in situ 231
  isoTOP-ABPP reactivity P35754_C23 GLRX: 20.0
[4]; 100 μM in situ 231
  isoTOP-ABPP reactivity Q9UNI6_C265 DUSP12: 0.8
[5]; 100 μM in situ 231
  isoTOP-ABPP reactivity Q14790_C360 CASP8: 20.0
[6]; 100 μM in situ 231
  isoTOP-ABPP reactivity Q14137_C404 BOP1: 1.2
[7]; 100 μM in situ 231
  isoTOP-ABPP reactivity Q96N67_C2125 DOCK7: 4.1
[11]; 100 μM in situ 231
  isoTOP-ABPP reactivity P27707_C9 DCK: 1.4
[8]; 100 μM in situ 231
  isoTOP-ABPP reactivity Q9NTX5_C133 ECHDC1: 1.7

## COc1ccccc1OCCNC(=O)CCl [compound 28]
[9]; 200 μM, insitu, 231
  isoTOP-ABPP ratio Q5MNZ6_C63: 1.7
[2]; 231
  isoTOP-ABPP ratio P35754_C23: 1.4
[4]; 200 μM, insitu, 231
  isoTOP-ABPP ratio Q9UNI6_C265: 0.8

## O=C(CCl)N1CCN(S(=O)(=O)c2ccccc2F)CC1 [compound 10]
[9]; 200 μM, insitu, 231
  isoTOP-ABPP ratio Q5MNZ6_C63: 3.6
[2]; ramos
  isoTOP-ABPP ratio P35754_C23: 13.0
[3]
  isoTOP-ABPP ratio, cysteine P52948_C1312: 20.0
[4]; 200 μM, insitu, 231
  isoTOP-ABPP ratio, cysteine Q9UNI6_C265: 1.2
[5]; 200 μM, insitu, ramos
  isoTOP-ABPP ratio Q14790_C360: 5.8
[6]; 200 μM, insitu, 231
  isoTOP-ABPP ratio, cysteine Q14137_C404: 20.0
[11]; 231
  isoTOP-ABPP ratio P27707_C9: 1.9
[11]; ramos
  isoTOP-ABPP ratio P27707_C9: 1.7
[10]
  isoTOP-ABPP ratio, cysteine O75717_C773: 2.2
[8]; 200 μM, insitu, 231
  isoTOP-ABPP ratio Q9NTX5_C133: 1.6

## CC1CCc2ccccc2N1C(=O)CCl (stereo not drawn) [compound 45]
[9]; 200 μM, insitu, 231
  isoTOP-ABPP ratio Q5MNZ6_C63: 2.6
[2]; 231
  isoTOP-ABPP ratio P35754_C23: 16.3
[4]; 200 μM, insitu, 231
  isoTOP-ABPP ratio Q9UNI6_C265: 7.5
[5]; 200 μM, insitu, 231
  isoTOP-ABPP ratio Q14790_C360: 20.0
[10]
  isoTOP-ABPP ratio O75717_C773: 3.6
[8]; 200 μM, insitu, 231
  isoTOP-ABPP ratio Q9NTX5_C133: 4.2

## Cc1ccc(C=C(C#N)C(=O)NCCN2CCOCC2)cc1 [compound 41]
[9]; 200 μM, insitu, 231
  isoTOP-ABPP ratio Q5MNZ6_C63: 0.8
[1]
  isoTOP-ABPP ratio Q5JPI3_C308: 0.7
[2]; 231
  isoTOP-ABPP ratio P35754_C23: 0.5
[4]; 200 μM, insitu, 231
  isoTOP-ABPP ratio Q9UNI6_C265: 1.0
[5]; 200 μM, insitu, 231
  isoTOP-ABPP ratio Q14790_C360: 0.5
[7]; 200 μM, insitu, 231
  isoTOP-ABPP ratio Q96N67_C2125: 0.7
[11]; 231
  isoTOP-ABPP ratio P27707_C9: 0.4
[10]
  isoTOP-ABPP ratio O75717_C773: 1.0

## COc1ccc2c(c1)CCCN2C(=O)CCl [compound 2]
[1]
  isoTOP-ABPP reactivity Q5JPI3_C308 C3orf38: 2.9
[5]; 200 μM, insitu, 231
  isoTOP-ABPP reactivity Q14790_C360 CASP8: 20.0
[6]; 200 μM, insitu, 231
  isoTOP-ABPP reactivity Q14137_C404 BOP1: 20.0
[8]; 200 μM, insitu, 231
  isoTOP-ABPP reactivity Q9NTX5_C133 ECHDC1: 1.5
